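Five concentrations, 48 hours, 96-well plates. Abbreviation: GI50, concentration required for 50% inhibition of growth.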 Activity calls are given as the source filed them. Cut-off read from the data, not from the text of the source: active = GI50 up to about 1.1 µM and inactive = higher.
Legend:
Assay in all cases: growth of human tumour cells (NCI), 48 h
HCT-15 = test system: HCT-15
NCI-H522 = test system: NCI-H522
NCI-H23 = test system: NCI-H23
SNB-19 = test system: SNB-19
SN12C = test system: SN12C
SNB-75 = test system: SNB-75
EKVX = test system: EKVX
786-0 = test system: 786-0
HOP-62 = test system: HOP-62
A549 = test system: A549
CAKI-1 = test system: CAKI-1
SW-620 = test system: SW-620
MDA-MB-231 = test system: MDA-MB-231
BT-549 = test system: BT-549
TK-10 = test system: TK-10
SK-MEL-2 = test system: SK-MEL-2
Hs-578T = test system: Hs-578T
UACC-257 = test system: UACC-257
SK-OV-3 = test system: SK-OV-3
OVCAR-4 = test system: OVCAR-4
UACC-62 = test system: UACC-62
NCI/ADR-RES = test system: NCI/ADR-RES
K562 = test system: K562
HOP-92 = test system: HOP-92
KM12 = test system: KM12
LOX IMVI = test system: LOX IMVI
A498 = test system: A498
UO-31 = test system: UO-31
OVCAR-3 = test system: OVCAR-3
T47D = test system: T47D
IGROV-1 = test system: IGROV-1
Malme-3M = test system: Malme-3M
COLO 205 = test system: COLO 205
SK-MEL-28 = test system: SK-MEL-28
U-251 = test system: U-251
ACHN = test system: ACHN
M14 = test system: M14
SF-268 = test system: SF-268
PC-3 = test system: PC-3
OVCAR-5 = test system: OVCAR-5
SF-539 = test system: SF-539
HCC 2998 = test system: HCC 2998
SK-MEL-5 = test system: SK-MEL-5
RXF 393 = test system: RXF 393
SF-295 = test system: SF-295
MCF7 = test system: MCF7
MDA-MB-435 = test system: MDA-MB-435
NCI-H226 = test system: NCI-H226
HT-29 = test system: HT-29
RPMI-8226 = test system: RPMI-8226
DU-145 = test system: DU-145
MDA-N = test system: MDA-N
NCI-H460 = test system: NCI-H460
HCT-116 = test system: HCT-116
OVCAR-8 = test system: OVCAR-8
CCRF-CEM = test system: CCRF-CEM
MOLT-4 = test system: MOLT-4
HL-60 = test system: HL-60

## S=C(N/N=C\C(=N/NC(=S)N1CCCCC1)c1ccccc1)N1CCCCC1
HCT-15
  GI50: 2400 nM
NCI-H522
  GI50: 1620 nM (inactive)
NCI-H23
  GI50: 2420 nM (inactive)
SNB-19
  GI50: 1900 nM (inactive)
SN12C
  GI50: 1950 nM (inactive)
SNB-75
  GI50: 2100 nM (inactive)
EKVX
  GI50: 1970 nM (inactive)
786-0
  GI50: 1850 nM (inactive)
HOP-62
  GI50: 2430 nM (inactive)
A549
  GI50: 2280 nM (inactive)
CAKI-1
  GI50: 2150 nM (inactive)
SW-620
  GI50: 2000 nM (inactive)
MDA-MB-231
  GI50: 2430 nM (inactive)
BT-549
  GI50: 1880 nM (inactive)
TK-10
  GI50: 1800 nM (inactive)
SK-MEL-2
  GI50: 2250 nM (inactive)
Hs-578T
  GI50: 1820 nM (inactive)
UACC-257
  GI50: 2140 nM (inactive)
SK-OV-3
  GI50: 1910 nM (inactive)
OVCAR-4
  GI50: 1760 nM (inactive)
UACC-62
  GI50: 1990 nM (inactive)
NCI/ADR-RES
  GI50: 2310 nM (inactive)
K562
  GI50: 5680 nM (inactive)
HOP-92
  GI50: 2380 nM (inactive)
KM12
  GI50: 2030 nM (inactive)
LOX IMVI
  GI50: 3330 nM (inactive)
A498
  GI50: 1780 nM (inactive)
UO-31
  GI50: 1740 nM (inactive)
OVCAR-3
  GI50: 1740 nM (inactive)
T47D
  GI50: 5400 nM (inactive)
IGROV-1
  GI50: 1760 nM (inactive)
Malme-3M
  GI50: 1910 nM (inactive)
COLO 205
  GI50: 2030 nM (inactive)
SK-MEL-28
  GI50: 1900 nM (inactive)
U-251
  GI50: 1840 nM (inactive)
ACHN
  GI50: 1690 nM (inactive)
M14
  GI50: 1920 nM (inactive)
SF-268
  GI50: 1990 nM (inactive)
PC-3
  GI50: 1920 nM (inactive)
OVCAR-5
  GI50: 1880 nM (inactive)
SF-539
  GI50: 2360 nM (inactive)
HCC 2998
  GI50: 2080 nM (inactive)
SK-MEL-5
  GI50: 1770 nM (inactive)
RXF 393
  GI50: 1850 nM (inactive)
SF-295
  GI50: 2010 nM (inactive)
MCF7
  GI50: 2810 nM (inactive)
MDA-MB-435
  GI50: 1910 nM (inactive)
NCI-H226
  GI50: 1840 nM (inactive)
HT-29
  GI50: 2230 nM (inactive)
RPMI-8226
  GI50: 46100 nM (inactive)
DU-145
  GI50: 1570 nM (inactive)
MDA-N
  GI50: 2890 nM (inactive)
NCI-H460
  GI50: 2140 nM (inactive)
HCT-116
  GI50: 2300 nM (inactive)

## C/C1=C\[C@@H](C)C[C@@H](C)OC(=O)[C@@H](C)NC(=O)[C@H](Cc2ccc(O)c(Br)c2)N(C)C(=O)CNC(=O)[C@H](C)C1
HCT-15
  GI50: < 10 nM
NCI-H522
  GI50: < 10 nM (active)
SNB-19
  GI50: 295 nM (active)
SN12C
  GI50: 119 nM (active)
SNB-75
  GI50: < 10 nM (active)
EKVX
  GI50: 117 nM (active)
786-0
  GI50: < 13.6 nM (active)
HOP-62
  GI50: < 10 nM (active)
A549
  GI50: < 10 nM (active)
CAKI-1
  GI50: < 10 nM (active)
SW-620
  GI50: < 10 nM (active)
MDA-MB-231
  GI50: < 10 nM (active)
BT-549
  GI50: 64.1 nM (active)
TK-10
  GI50: < 15.7 nM (active)
OVCAR-8
  GI50: 137 nM (active)
Hs-578T
  GI50: < 13.6 nM (active)
UACC-257
  GI50: < 10 nM (active)
SK-OV-3
  GI50: < 10 nM (active)
OVCAR-4
  GI50: < 10 nM (active)
CCRF-CEM
  GI50: < 10 nM (active)
NCI/ADR-RES
  GI50: 36.6 nM (active)
K562
  GI50: < 10 nM (active)
HOP-92
  GI50: < 10 nM (active)
LOX IMVI
  GI50: < 10 nM (active)
A498
  GI50: < 10.6 nM (active)
UO-31
  GI50: 26 nM (active)
OVCAR-3
  GI50: < 10 nM (active)
T47D
  GI50: 126 nM (active)
IGROV-1
  GI50: < 10 nM (active)
Malme-3M
  GI50: 32.8 nM (active)
COLO 205
  GI50: < 10 nM (active)
SK-MEL-28
  GI50: 28.4 nM (active)
MOLT-4
  GI50: 143 nM (active)
U-251
  GI50: < 10 nM (active)
ACHN
  GI50: < 10 nM (active)
M14
  GI50: < 20.2 nM (active)
SF-268
  GI50: < 19.3 nM (active)
PC-3
  GI50: < 10 nM (active)
OVCAR-5
  GI50: 13000 nM (inactive)
SF-539
  GI50: < 10 nM (active)
HCC 2998
  GI50: < 10 nM (active)
SK-MEL-5
  GI50: < 10 nM (active)
RXF 393
  GI50: < 18.4 nM (active)
SF-295
  GI50: 11.4 nM (active)
MCF7
  GI50: 182 nM (active)
MDA-MB-435
  GI50: < 10 nM (active)
HT-29
  GI50: < 10 nM (active)
RPMI-8226
  GI50: < 10 nM (active)
DU-145
  GI50: 363 nM (active)
HL-60
  GI50: < 10 nM (active)
MDA-N
  GI50: < 30.4 nM (active)
NCI-H460
  GI50: < 10 nM (active)
HCT-116
  GI50: < 10 nM (active)

## C=C[C@H]1CN2CC[C@H]1C[C@@H]2[C@@H](O)c1ccnc2ccccc12 [CINCHONINE]
HCT-15
  GI50: > 100000 nM
NCI-H522
  GI50: > 100000 nM (inactive)
NCI-H23
  GI50: > 100000 nM (inactive)
SNB-19
  GI50: > 100000 nM (inactive)
SN12C
  GI50: > 100000 nM (inactive)
SNB-75
  GI50: 22800 nM (inactive)
EKVX
  GI50: 73300 nM (inactive)
786-0
  GI50: > 100000 nM (inactive)
HOP-62
  GI50: 89900 nM (inactive)
A549
  GI50: > 100000 nM (inactive)
CAKI-1
  GI50: > 100000 nM (inactive)
SW-620
  GI50: > 100000 nM (inactive)
MDA-MB-231
  GI50: > 100000 nM (inactive)
BT-549
  GI50: > 100000 nM (inactive)
TK-10
  GI50: > 100000 nM (inactive)
OVCAR-8
  GI50: > 100000 nM (inactive)
SK-MEL-2
  GI50: > 100000 nM (inactive)
Hs-578T
  GI50: 1260 nM (inactive)
UACC-257
  GI50: > 100000 nM (inactive)
SK-OV-3
  GI50: > 100000 nM (inactive)
OVCAR-4
  GI50: 58600 nM (inactive)
UACC-62
  GI50: > 100000 nM (inactive)
NCI/ADR-RES
  GI50: > 100000 nM (inactive)
K562
  GI50: 55200 nM (inactive)
KM12
  GI50: > 100000 nM (inactive)
LOX IMVI
  GI50: 5400 nM (inactive)
A498
  GI50: 63000 nM (inactive)
UO-31
  GI50: 52700 nM (inactive)
OVCAR-3
  GI50: > 100000 nM (inactive)
T47D
  GI50: > 100000 nM (inactive)
IGROV-1
  GI50: 19600 nM (inactive)
Malme-3M
  GI50: > 100000 nM (inactive)
COLO 205
  GI50: > 100000 nM (inactive)
SK-MEL-28
  GI50: > 100000 nM (inactive)
MOLT-4
  GI50: > 100000 nM (inactive)
U-251
  GI50: > 100000 nM (inactive)
ACHN
  GI50: > 100000 nM (inactive)
M14
  GI50: 38100 nM (inactive)
SF-268
  GI50: > 100000 nM (inactive)
PC-3
  GI50: > 100000 nM (inactive)
OVCAR-5
  GI50: > 100000 nM (inactive)
SF-539
  GI50: > 100000 nM (inactive)
SK-MEL-5
  GI50: > 100000 nM (inactive)
RXF 393
  GI50: > 100000 nM (inactive)
SF-295
  GI50: > 100000 nM (inactive)
MCF7
  GI50: > 100000 nM (inactive)
MDA-MB-435
  GI50: > 100000 nM (inactive)
NCI-H226
  GI50: > 100000 nM (inactive)
HT-29
  GI50: 46800 nM (inactive)
RPMI-8226
  GI50: 22900 nM (inactive)
DU-145
  GI50: > 100000 nM (inactive)
HL-60
  GI50: > 100000 nM (inactive)
MDA-N
  GI50: > 100000 nM (inactive)
NCI-H460
  GI50: > 100000 nM (inactive)
HCT-116
  GI50: > 100000 nM (inactive)

— ChEMBL document CHEMBL1201862, “PubChem BioAssay data set” (2004)
